The structures appear in SMILES notation.

For 28 molecules, IC50 results are on record in patent US8012956B2, “Tropane compounds” (Exelixis, Inc., priority 2007, dated 2011).

In the test the target is HSP90 (Homo sapiens, UniProt P07900). Put plainly: HSP90 inhibition (HSP90 IC50). Type of test: biochemical.
As a reminder, the IC50 is the concentration needed to halve the response being measured. Higher therefore signals weaker potency. On to `CC(=O)c1ccc(N2[C@@H]3CC[C@H]2C[C@@H](NC(=O)c2cc(NC4CCC(C(F)(F)F)CC4)c(C(N)=O)cc2C)C3)nc1` (stereo partly drawn) [N-[8-(5-acetylpyridin-2-yl)-8-azabicyclo[3.2.1]oct-3-endo-yl]-2-methyl-5-{[4-(trifluoromethyl)cyclohexyl]amino} benzene-1,4-dicarboxamide], for which the IC50 is below 500 nM.

Consider `CCC(CC)Nc1cc(C(=O)N[C@H]2C[C@H]3CC[C@@H](C2)N3c2ccc(C(C)=O)cn2)c(F)cc1C(N)=O` [N-[8-(5-acetylpyridin-2-yl)-8-azabicyclo[3.2.1]oct-3-endo-yl]-5-[(1-ethylpropyl)amino]-2-fluorobenzene-1,4-dicarboxamide], for which the IC50 was below 500 nM. On to `CC(=O)c1ccc(N2C3CCC2CC(NC(=O)c2cc(N[C@H]4CC[C@H](O)CC4)c(C(N)=O)cc2C)C3)nc1` (stereo partly drawn) [N-[8-(5-acetylpyridin-2-yl)-8-azabicyclo[3.2.1]oct-3-endo-yl]-5-[(trans-4-hydroxycyclohexyl)amino]-2-methylbenzene-1,4-dicarboxamide], for which the concentration for half-maximal inhibition (IC50) was below 500 nM.

`CCN1CC(NC(=O)c2ccc(N3[C@@H]4CC[C@H]3C[C@@H](NC(=O)c3cc(C)c(C(N)=O)cc3C)C4)nc2)C1` [N-[8-(5-{[(1-ethylazetidin-3-yl)amino]carbonyl}pyridin-2-yl)-8-azabicyclo[3.2.1]oct-3-endo-yl]-2,5-dimethylbenzene-1,4-dicarboxamide]: the IC50 is below 500 nM. As for `CCN1CCC(NC(=O)c2ccc(N3[C@@H]4CC[C@H]3C[C@@H](NC(=O)c3cc(C)c(C(N)=O)cc3C)C4)nc2)CC1` [N-[8-(5-{[(1-ethylpiperidin-4-yl)amino]carbonyl}pyridin-2-yl)-8-azabicyclo[3.2.1]oct-3-endo-yl]-2,5-dimethylbenzene-1,4-dicarboxamide], the figure is 500 to 999 nM; as for `NC(=O)c1ccc(C(=O)N[C@H]2C[C@H]3CC[C@@H](C2)N3c2ccc(C(=O)NCc3ccccc3)cn2)cc1` [N-[8-(5-{[(phenylmethyl)amino]carbonyl}pyridin-2-yl)-8-azabicyclo[3.2.1]oct-3-endo-yl]benzene-1,4-dicarboxamide], below 500 nM; as for `NC(=O)c1ccc(C(=O)N[C@H]2C[C@H]3CC[C@@H](C2)N3c2ccc(C(=O)NCc3cccnc3)cn2)cc1` [N-[8-(5-{[(pyridin-3-ylmethyl)amino]carbonyl}pyridin-2-yl)-8-azabicyclo[3.2.1]oct-3-endo-yl]benzene-1,4-dicarboxamide], below 500 nM. `COc1cccc(C(=O)NC2CC3CCC(C2)N3c2ccc(C(=O)N[C@H](C)C(C)C)cn2)c1C` (stereo partly drawn) [N-[(1R)-1,2-dimethylpropyl]-6-[3-endo-({[2-methyl-3-(methyloxy)phenyl]carbonyl}amino)-8-azabicyclo[3.2.1]oct-8-yl]pyridine-3-carboxamide] displayed an IC50 of 2000 to 10000 nM.

Take `COc1cccc(C(=O)NC2CC3CCC(C2)N3c2ccc(C(=O)N[C@@H]3CC4CCC3C4)cn2)c1C` (stereo partly drawn) [N-[(1R,2R,4S)-bicyclo[2.2.1]hept-2-yl]-6-[3-endo-({[2-methyl-3-(methyloxy)phenyl]carbonyl}amino)-8-azabicyclo[3.2.1]oct-8-yl]pyridine-3-carboxamide]: the half-inhibitory concentration (IC50) lay within 1000 to 2000 nM. Take `COc1cccc(C(=O)NC2CC3CCC(C2)N3c2ccc(C(=O)N[C@@H](C)C(C)C)cn2)c1C` (stereo partly drawn) [N-[(1S)-1,2-dimethylpropyl]-6-[3-endo-({[2-methyl-3-(methyloxy)phenyl]carbonyl}amino)-8-azabicyclo[3.2.1]oct-8-yl]pyridine-3-carboxamide]: the half-inhibitory concentration (IC50) was 1000 to 2000 nM. As for `COc1cccc(C(=O)NC2CC3CCC(C2)N3c2ccc(C(=O)N[C@@H](C)c3ccc(Cl)cc3)cn2)c1C` (stereo partly drawn) [N-[(1S)-1-(4-chlorophenyl)ethyl]-6-[3-endo-({[2-methyl-3-(methyloxy)phenyl]carbonyl}amino)-8-azabicyclo[3.2.1]oct-8-yl]pyridine-3-carboxamide], the figure is below 500 nM; as for `CCN(CC)CCOc1ccc([C@H](C)NC(=O)c2ccc(N3C4CCC3CC(NC(=O)c3cccc(OC)c3C)C4)nc2)c(F)c1` (stereo partly drawn) [N-[(1S)-1-(4-{[2-(diethylamino)ethyl]oxy}-2-fluorophenyl)ethyl]-6-[3-endo-({[2-methyl-3-(methyloxy)phenyl]carbonyl}amino)-8-azabicyclo[3.2.1]oct-8-yl]pyridine-3-carboxamide], below 500 nM; as for `CCN(CC)CCOc1ccc([C@H](C)NC(=O)c2ccc(N3C4CCC3CC(NC(=O)c3cccc(OC)c3C)C4)nc2)cc1` (stereo partly drawn) [N-[(1S)-1-(4-{[2-(diethylamino)ethyl]oxy}phenyl)ethyl]-6-[3-endo-({[2-methyl-3-(methyloxy)phenyl]carbonyl}amino)-8-azabicyclo[3.2.1]oct-8-yl]pyridine-3-carboxamide], below 500 nM. As for `COC[C@H](C)NC(=O)c1ccc(N2C3CCC2CC(NC(=O)c2cccc(OC)c2C)C3)nc1` (stereo partly drawn) [N-[(1S)-1-methyl-2-(methyloxy)ethyl]-6-[3-endo-({[2-methyl-3-(methyloxy)phenyl]carbonyl}amino)-8-azabicyclo[3.2.1]oct-8-yl]pyridine-3-carboxamide], the figure is 1000 to 2000 nM. `COc1cccc(C(=O)NC2CC3CCC(C2)N3c2ccc(C(=O)N[C@@H](C)C(N)=O)cn2)c1C` (stereo partly drawn) [N-[(1S)-2-amino-1-methyl-2-oxoethyl]-6-[3-endo-({[2-methyl-3-(methyloxy)phenyl]carbonyl}amino)-8-azabicyclo[3.2.1]oct-8-yl]pyridine-3-carboxamide] displayed an IC50 of 500 to 999 nM. The result for `COc1cccc(C(=O)NC2CC3CCC(C2)N3c2ccc(C(=O)N[C@@H](C)CO)cn2)c1C` (stereo partly drawn) [N-[(1S)-2-hydroxy-1-methylethyl]-6-[3-endo-({[2-methyl-3-(methyloxy)phenyl]carbonyl}amino)-8-azabicyclo[3.2.1]oct-8-yl]pyridine-3-carboxamide] reads 1000 to 2000 nM; that for `COc1cccc(C(=O)NC2CC3CCC(C2)N3c2ccc(C(=O)N[C@H]3CCCC[C@@H]3O)cn2)c1C` (stereo partly drawn) [N-[(1S,2S)-2-hydroxycyclohexyl]-6-[3-endo-({[2-methyl-3-(methyloxy)phenyl]carbonyl}amino)-8-azabicyclo[3.2.1]oct-8-yl]pyridlne-3-carboxamide], 2000 to 10000 nM; that for `COc1cccc(C(=O)NC2CC3CCC(C2)N3c2ccc(C(=O)NCC3COC(C)(C)O3)cn2)c1C` (stereo not drawn) [N-[(2,2-dimethyl-1,3-dioxolan-4-yl)methyl]-6-[3-endo-({[2-methyl-3-(methyloxy)phenyl]carbonyl}amino)-8-azabicyclo[3.2.1]oct-8-yl]pyridine-3-carboxamide], 2000 to 10000 nM. As for `COc1cccc(C(=O)N[C@H]2C[C@H]3CC[C@@H](C2)N3c2ccc(C(=O)NCc3ccc(F)cc3F)cn2)c1C` [N-[(2,4-difluorophenyl)methyl]-6-[3-endo-({[2-methyl-3-(methyloxy)phenyl]carbonyl}amino)-8-azabicyclo[3.2.1]oct-8-yl]pyridine-3-carboxamide], the 50% inhibitory concentration (IC50) is below 500 nM.

In the case of `COc1cccc(C(=O)N[C@H]2C[C@H]3CC[C@@H](C2)N3c2ccc(C(=O)NCc3cc(F)ccc3F)cn2)c1C` [N-[(2,5-difluorophenyl)methyl]-6-[3-endo-({[2-methyl-3-(methyloxy)phenyl]carbonyl}amino)-8-azabicyclo[3.2.1]oct-8-yl]pyridine-3-carboxamide], the IC50 was in the range of 500 to 999 nM.

In turn, `COc1cccc(C(=O)N[C@H]2C[C@H]3CC[C@@H](C2)N3c2ccc(C(=O)NCc3c(F)cccc3F)cn2)c1C` [N-[(2,6-difluorophenyl)methyl]-6-[3-endo-({[2-methyl-3-(methyloxy)phenyl]carbonyl}amino)-8-azabicyclo[3.2.1]oct-8-yl]pyridine-3-carboxamide] returned a half-maximal inhibitory concentration (IC50) below 500 nM. For `COc1cccc(C(=O)N[C@H]2C[C@H]3CC[C@@H](C2)N3c2ccc(C(=O)NCc3c(F)ccc(F)c3Cl)cn2)c1C` [N-[(2-chloro-3,6-difluorophenyl)methyl]-6-[3-endo-({[2-methyl-3-(methyloxy)phenyl]carbonyl}amino)-8-azabicyclo[3.2.1]oct-8-yl]pyridine-3-carboxamide], the 50% inhibitory concentration (IC50) was below 500 nM. As for `COc1cccc(C(=O)N[C@H]2C[C@H]3CC[C@@H](C2)N3c2ccc(C(=O)NCc3c(F)ccc(C)c3Cl)cn2)c1C` [N-[(2-chloro-6-fluoro-3-methylphenyl)methyl]-6-[3-endo-({[2-methyl-3-(methyloxy)phenyl]carbonyl}amino)-8-azabicyclo[3.2.1]oct-8-yl]pyridine-3-carboxamide], the figure is 500 to 999 nM; as for `COc1cccc(C(=O)N[C@H]2C[C@H]3CC[C@@H](C2)N3c2ccc(C(=O)NCc3c(F)cccc3Cl)cn2)c1C` [N-[(2-chloro-6-fluorophenyl)methyl]-6-[3-endo-({[2-methyl-3-(methyloxy)phenyl]carbonyl}amino)-8-azabicyclo[3.2.1]oct-8-yl]pyridine-3-carboxamide], below 500 nM. As for `COc1cccc(C(=O)N[C@H]2C[C@H]3CC[C@@H](C2)N3c2ccc(C(=O)NCc3ccccc3Cl)cn2)c1C` [N-[(2-chlorophenyl)methyl]-6-[3-endo-({[2-methyl-3-(methyloxy)phenyl]carbonyl}amino)-8-azabicyclo[3.2.1]oct-8-yl]pyridine-3-carboxamide], the figure is below 500 nM; as for `COc1cccc(C(=O)N[C@H]2C[C@H]3CC[C@@H](C2)N3c2ccc(C(=O)NCc3ccccc3F)cn2)c1C` [N-[(2-fluorophenyl)methyl]-6-[3-endo-({[2-methyl-3-(methyloxy)phenyl]carbonyl}amino)-8-azabicyclo[3.2.1]oct-8-yl]pyridine-3-carboxamide], below 500 nM; as for `COc1cccc(C(=O)NC2CC3CCC(C2)N3c2ccc(C(=O)NC[C@H](C)O)cn2)c1C` (stereo partly drawn) [N-[(2S)-2.hydroxypropyl]-6-[3-endo-({[2-methyl-3-(methyloxy)phenyl]carbonyl}amino)-8-azabicyclo[3.2.1]oct-8-yl]pyridine-3-carboxamide], 2000 to 10000 nM. As to `COc1cccc(C(=O)N[C@H]2C[C@H]3CC[C@@H](C2)N3c2ccc(C(=O)NCc3ccc(F)c(F)c3)cn2)c1C` [N-[(3,4-difluorophenyl)methyl]-6-[3-endo-({(2-methyl-3-(methyloxy)phenyl]carbonyl}amino)-8-azablcyclo[3.2.1]oct-8-yl]pyridine-3-carboxamide], the IC50 was below 500 nM.
